Values quoted from earlier work, collected in patent US10001483B2, “Methods for the treatment of Kaposi's sarcoma or KSHV-induced lymphoma using immunomodulatory compounds, and uses of biomarkers” (Celgene Corporation, priority 2015, dated 2018).
Read-outs that look alike come from different tables or passages of the source.

Conditions: patients, cited from earlier work

SMILES | Cmax (approved dose 200 mg) [ng/mL] | Plasma Serum Concentration (approved dose 200 mg) [µM] | Cmax (approved dose 25 mg) [ng/mL] | Plasma Serum Concentration (approved dose 25 mg) [µM]
O=C1CCC(N2C(=O)c3ccccc3C2=O)C(=O)N1 (stereo not shown) [thalidomide, 2-(2,6-dioxopiperidin-3-yl)-1H-isoindole-1,3(2H)-dione] | 1760 | 7 | – | –
Nc1cccc2c1CN(C1CCC(=O)NC1=O)C2=O (stereo not shown) [lenalidomide, 3-(4-amino-1-oxo 1,3-dihydro-2H-isoindol-2-yl) piperidine-2,6-dione] | – | – | 451 | 2
